Columns and labels:
IL-6 = IL-6 (Homo sapiens, UniProt P05231); experiment: Immunoassay binding test, IL-6 (gp130 receptor, IL-6Ra present); settings: IL-6Ra 200 ng/ml
Summary of the method: (§1)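 Compounds (final 100 to 0.78 μM) were preincubated 2 h at 37 °C with a fixed amount of cytokine; for IL-6, IL-6Ra was also present at 200 ng/ml final. Mixtures were then incubated overnight at 4 °C on receptor-coated plates. Bound cytokine was detected with biotinylated anti-cytokine antibody and avidin-HRP, read as OD at 450 nm.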

IL-13 = IL-13 (Homo sapiens, UniProt P35225); experiment: Immunoassay binding test, IL-13; settings: for IC50: IL-13 400 ng/ml, receptor 100 ng/ml, read-out: BINDING IL13 IC50
Summary of the method: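 Receptor-coated plates; compounds (100 to 0.78 μM final) preincubated 2 h at 37° C with fixed cytokine, then bound to receptor overnight at 4° C. Bound cytokine detected with biotinylated anti-cytokine antibody and avidin-HRP, OD 450 nm.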

IL-4 = target: T1, IL-4 (Homo sapiens, UniProt P05112); experiment: Immunoassay binding test, IL-4; settings: for IC50: IL-4 400 ng/ml, receptor 100 ng/ml, read-out: BINDING IL4 IC50
T1 sequence (P05112 25-153): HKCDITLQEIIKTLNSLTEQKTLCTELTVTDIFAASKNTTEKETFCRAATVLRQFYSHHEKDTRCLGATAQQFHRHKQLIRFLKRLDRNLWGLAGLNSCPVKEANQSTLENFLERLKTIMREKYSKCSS
Summary of the method: as §1

TNFa/TNFRI interaction = TNFa/TNFRI interaction (Homo sapiens, UniProt P01375); experiment: TNFa/TNFRI interaction displacement test; assay type: binding; settings: compounds at 50 μM; human TNFRI 100 ng/ml
Summary of the method: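 Plates coated overnight at 4° C with human TNFRI (100 ng/ml) and blocked with 2% BSA, then test mixtures were incubated overnight at 4° C. Bound cytokine detected with biotinylated anti-cytokine antibody (2 h, 37° C) and avidin-HRP, read as OD at 450 nm.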

TNFα = TNFα (Homo sapiens, UniProt P01375); experiment: Immunoassay binding test, TNFa; settings: compounds 100 to 0.78 μM; TNFα 10 ng/ml, receptor 100 ng/ml; read-out: BINDING TNF IC50
Summary of the method: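 ELISA-type binding test: receptor-coated plates blocked with 2% BSA, then cytokine (six-point dilution series) preincubated 2 h at 37 °C and bound overnight at 4 °C. Detection used biotinylated anti-cytokine antibody and avidin-HRP, read as OD at 450 nm. For IL-6, IL-6Ra was present at 200 ng/ml final.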

IL-6, sequence (P05231 30-212, species assumed): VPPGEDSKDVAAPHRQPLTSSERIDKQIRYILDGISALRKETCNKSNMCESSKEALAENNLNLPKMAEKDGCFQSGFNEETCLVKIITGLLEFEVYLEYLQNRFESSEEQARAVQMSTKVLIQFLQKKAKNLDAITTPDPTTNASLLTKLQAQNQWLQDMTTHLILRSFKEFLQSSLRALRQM
TNFa/TNFRI interaction, sequence (P01375 77-233 limits assumed): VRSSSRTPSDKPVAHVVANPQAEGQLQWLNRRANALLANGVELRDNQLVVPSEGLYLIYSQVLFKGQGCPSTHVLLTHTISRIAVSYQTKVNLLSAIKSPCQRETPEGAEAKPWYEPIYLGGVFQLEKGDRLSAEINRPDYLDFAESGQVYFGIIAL
TNFα, sequence (P01375 77-233 limits assumed, species assumed): as the sequence (P01375 77-233 limits assumed) above
IL-13, sequence (P35225 25-146, species assumed): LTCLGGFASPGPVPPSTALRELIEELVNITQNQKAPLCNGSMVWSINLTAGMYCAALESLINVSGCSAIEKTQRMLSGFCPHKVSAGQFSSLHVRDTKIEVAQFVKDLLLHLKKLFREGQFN

O=S(=O)(c1ccccc1)n1cc(CN(CCCCCNC2CCCCC2)Cc2ccc(F)nc2)c2ccccc21 [Compound 56]
BINDING IL6 % Neutra at 100 μM (IL-6): 0%
BINDING IL13 % Neutra at 100 μM (IL-13): 93.4%
IC50 (IL-13): 10.2 µM
BINDING IL4 % Neutra at 100 μM (IL-4): 91.9%
IC50 (IL-4): 2.6 µM
Displacement (%) (TNFa/TNFRI interaction): 124%
IC50 (TNFα): 13.2 µM

CN(CCCCCN(Cc1ccc(F)nc1)Cc1cn(S(=O)(=O)c2ccccc2)c2ccccc12)C1CCCCC1 [Compound 58]
BINDING IL6 % Neutra at 100 μM (IL-6): 1%
BINDING IL13 % Neutra at 100 μM (IL-13): 89.1%
IC50 (IL-13): 10.4 µM
BINDING IL4 % Neutra at 100 μM (IL-4): 92.5%
IC50 (IL-4): 2.1 µM
Displacement (%) (TNFa/TNFRI interaction): 126%
IC50 (TNFα): 6.7 µM

NCCN(Cc1cccnc1)Cc1cn(S(=O)(=O)c2ccccc2)c2ccccc12 [Compound 59]
BINDING IL6 % Neutra at 100 μM (IL-6): 0%
BINDING IL13 % Neutra at 100 μM (IL-13): 59.3%
IC50 (IL-13): > 50 µM
BINDING IL4 % Neutra at 100 μM (IL-4): 89.4%
IC50 (IL-4): 43.9 µM
Displacement (%) (TNFa/TNFRI interaction): 78%
IC50 (TNFα): 35.8 µM

O=[N+]([O-])c1ccccc1S(=O)(=O)NCCCN(Cc1cccnc1)Cc1cn(S(=O)(=O)c2ccccc2)c2ccccc12 [Compound 60]
BINDING IL6 % Neutra at 100 μM (IL-6): 0%
BINDING IL13 % Neutra at 100 μM (IL-13): 0%
BINDING IL4 % Neutra at 100 μM (IL-4): 36.4%
Displacement (%) (TNFa/TNFRI interaction): 2%
IC50 (TNFα): > 50 µM

O=S(=O)(c1ccccc1)n1cc(CN(CCCCCNCc2cccnc2F)Cc2cccnc2F)c2ccccc21 [Compound 62]
BINDING IL6 % Neutra at 100 μM (IL-6): 0%
BINDING IL13 % Neutra at 100 μM (IL-13): 67.9%
IC50 (IL-13): 38.5 µM
BINDING IL4 % Neutra at 100 μM (IL-4): 81.5%
IC50 (IL-4): 7.8 µM
Displacement (%) (TNFa/TNFRI interaction): 105%
IC50 (TNFα): 26.8 µM

NCCCCN(Cc1cccnc1F)Cc1cn(S(=O)(=O)c2ccccc2)c2ccccc12 [Compound 63]
BINDING IL6 % Neutra at 100 μM (IL-6): 0%
BINDING IL13 % Neutra at 100 μM (IL-13): 55.4%
IC50 (IL-13): > 50 µM
BINDING IL4 % Neutra at 100 μM (IL-4): 85.9%
IC50 (IL-4): 16 µM
Displacement (%) (TNFa/TNFRI interaction): 88%
IC50 (TNFα): 26.5 µM

O=S(=O)(c1ccccc1)n1cc(CN(CCOCCNC2CCCCC2)Cc2cccnc2F)c2ccccc21 [Compound 64, N-(2-(2-(((2-fluoropyridin-3-yl)methyl) ((1-(phenylsulfonyl)-1H-indol-3-yl)methyl)amino)ethoxy)ethyl)cyclohexanaminee]
BINDING IL6 % Neutra at 100 μM (IL-6): 0%
BINDING IL13 % Neutra at 100 μM (IL-13): 83.9%
IC50 (IL-13): 28.2 µM
BINDING IL4 % Neutra at 100 μM (IL-4): 90.7%
IC50 (IL-4): 5.1 µM
Displacement (%) (TNFa/TNFRI interaction): 197%
IC50 (TNFα): 8.9 µM

CCN(CCCCN(Cc1cccnc1F)Cc1cn(S(=O)(=O)c2ccccc2)c2ccccc12)C1CCCCC1 [Compound 66, N′-cyclohexyl-N′-ethyl-N^4-((2-fluoropyridin-3-yl)methyl)-N^4-((1-(phenylsulfonyl)-1H-indol-3-yl)methyl)butane-1,4-diamine]
BINDING IL6 % Neutra at 100 μM (IL-6): 3%
BINDING IL13 % Neutra at 100 μM (IL-13): 85.1%
IC50 (IL-13): 36 µM
BINDING IL4 % Neutra at 100 μM (IL-4): 89.1%
IC50 (IL-4): 4.7 µM
Displacement (%) (TNFa/TNFRI interaction): 215%
IC50 (TNFα): 6.4 µM

CCCCN(CCCCN(Cc1cccnc1F)Cc1cn(S(=O)(=O)c2ccccc2)c2ccccc12)C1CCCCC1 [Compound 68, N′-butyl-N′-cyclohexyl-N^4-((2-fluoropyridin-3-yl)methy)-N^4-((1-(phenylsulfonyl)-1H-indol-3-yl)methyl)butane-1,4-diamine]
BINDING IL6 % Neutra at 100 μM (IL-6): 0%
BINDING IL13 % Neutra at 100 μM (IL-13): 81.6%
IC50 (IL-13): 17.3 µM
BINDING IL4 % Neutra at 100 μM (IL-4): 86.0%
IC50 (IL-4): 4.2 µM
Displacement (%) (TNFa/TNFRI interaction): 219%
IC50 (TNFα): 10 µM

O=S(=O)(c1ccccc1)n1cc(CN(CCCCNC2CCC2)Cc2cccnc2F)c2ccccc21 [Compound 69, N′-cyclobutyl-N^4-((2-fluoropyridin-3-yl)methyl)-N^4-((1-(phenylsulfonyl)-1H-indol-3-yl)methyl)butane-1,4-diamine]
BINDING IL6 % Neutra at 100 μM (IL-6): 0%
BINDING IL13 % Neutra at 100 μM (IL-13): 79.7%
IC50 (IL-13): > 50 µM
BINDING IL4 % Neutra at 100 μM (IL-4): 93.6%
IC50 (IL-4): 5.6 µM
Displacement (%) (TNFa/TNFRI interaction): 121%
IC50 (TNFα): 12.1 µM

— patent publication US20230416239A1, “COMPOUNDS AND METHODS FOR TREATING A CYTOKINE-MEDIATED DISEASE” (CONSERVATOIRE NATIONAL DES ARTS ET MÉTIERS, priority 2020, published 2023)
